Laboratory results from patent publication US20050049229A1, “Therapeutic applications of 2-hydroxyacetanilide” (priority 2003, published 2005).
Where two headings read alike, the source gives them in different places. Marks after values point to notes of the source that are not given here.

What was measured:
[1] = test system: platelet aggregation induced by collagen, arachidonic acid (AA) and adenosine diphosphate (ADP); details: Dupin et al.; cited from earlier work
[2] = test system: carrageenan-induced rat-paw oedema; experiment: carrageenan-induced rat paw oedema (plethysmographic method); format: in vivo; details: for Mean paw volume ± SEM after 5 hr: 30 min before carrageenan; for Anti-inflammatory Activity Mean ± SEM: A−B/A×100 vs control, in %
Protocol: The plethysmographic method (Winter et al., Proc. Soc. Exp. Biol. Med. III, 1962, pp. 544-547) was then used for recording the volume changes in the rat paw. […] Another two groups received paracetamol at a dose of 300 or 500 mg kg^−1, and a further two groups received aspirin at a dose of 150 or 300 mg kg^−1, while the control group received saline or distilled water. […] The difference in paw volumes before and after the carrageenan injections indicated the volume of inflammation. Anti-inflammatory activities were calculated as A−B/A×100, where A and B denote mean paw volume of control and drug-treated animals respectively.

PAF-induced mortality = experiment: prevention of PAF-induced mortality in rabbits; format: in vivo, rabbit
Protocol: Male rabbits (New Zealand White, 3-3.5 kg) were used to test the ability of 2-hydroxyacetanilide, paracetamol and aspirin to prevent the lethality of intravenous PAF.
PAF was prepared before each injection by dissolution in saline to give a final concentration of 22 μg ml^−1. The resulting solution was injected into the marginal ear vein of the rabbits over a period of approximately 1 minute. In preliminary experiments it was established that an intravenous dose of 11 μg kg^−1 PAF was required to induce consistently fatal pulmonary thrombosis in the animals (n=6). This dose of PAF was used in subsequent experiments with 2-hydroxyacetanilide and paracetamol.
Rabbits were pretreated by intraperitoneal injection of either 2-hydroxyacetanilide (100 or 300 mg kg^−1), paracetamol (300 or 500 mg kg^−1) or aspirin (50 mg kg^−1) 2 hours before the challenging dose of PAF. Each animal was used for only one experiment.

[3] = test system: platelet aggregation induced by AA, PAF or collagen; experiment: in vivo platelet aggregation (PRP from orally dosed rabbits); set-up: species or system rabbit; details: Oryctolagus cuniculus, 500 mg/kg oral, blood 2 hours after
Protocol: Both 2-hydroxyacetanilide and paracetamol were tested for in vivo platelet aggregation activity at a dose of 500 mg kg^−1. The compounds were first separately dissolved in 0.5% w/v gum tragacanth and then administered orally to albino rabbits of either sex. Control groups received only the vehicle.
Blood was drawn from the marginal ear of the rabbits 2 hours after drug administration. The blood was then mixed with 3.8% w/v sodium citrate solution (9:1) and centrifuged at 260 g for 15 minutes at 20° C. to prepare platelet rich plasma (PRP). The platelet count was determined by phase contrast microscopy and all aggregation studies were carried out at 37° C. with PRP having platelet counts between 2.5 and […] /ml of plasma. The experiments were performed within 2 hours of PRP preparation.
Platelet aggregation was monitored using a Dual-Channel Lumi-aggregometer (Model 400 Chronolog Corporation, Chicago, USA) using 0.45 ml aliquots of PRP. Aggregation was induced with platelet activating factor (PAF, 0.8 μM), collagen (20 μg mL^−1) or arachidonic acid (AA, 1.7 mM).

[4] = test system: acetic acid induced writhing; experiment: acetic acid induced writhing test in mice; format: in vivo, mouse; details: for No. of writhings: 30 min before 1% acetic acid IP, counted 10 minutes
Protocol: Analgesia was assessed by the method of Koster et al. (Federation Proceedings, 1959, 18, pp. 412-416), otherwise known as the acetic acid induced writhing test. When acetic acid is injected intraperitoneally it causes abdominal contractions or writhings, a syndrome characterized by a wave of contraction of the abdominal musculature followed by extension of hind limbs. By counting the number of writhes a measure of the effective analgesia provided can be obtained.
Male Wister mice (20-25 g) were divided into six groups, with five mice per group, for use in the writhing assay. The compounds 2-hydroxyacetanilide or paracetamol were administered orally 30 minutes prior to an intraperitoneal injection of 1% acetic acid. Immediately after administering the acetic acid, the number of writhings were counted and recorded for the subsequent 10 minutes. Analgesic potency was taken as difference between a test group mean and its control.

[5] = test system: platelet aggregation induced by AA, PAF or collagen; experiment: in vitro platelet aggregation in human platelet rich plasma; format: cell-based; details: human PRP
Protocol: Blood was drawn by vein puncture from healthy human volunteers reported to be free of medications for at least one week. The blood samples were mixed with 3.8% w/v sodium citrate solution (9:1) and centrifuged at 260 g for 15 minutes at 20° C. to obtain platelet rich plasma (PRP). The platelet count was determined by phase contrast microscopy and all aggregation studies were carried out at 37° C. with PRP having platelet counts between 2.5 and 3.0×10^8/ml of plasma. All experiments were performed within 2 hours of PRP preparation.
Platelet aggregation was monitored using a Dual-channel Lumi-aggregometer (Model 400 Chronolog Corporation, Chicago, USA) using 0.45 ml aliquots of PRP. The final volume was made up to 0.5 ml with the test compound dissolved either in normal saline or an appropriate solvent known to be devoid of any effect on aggregation. Aggregation was induced by arachidonic acid (AA), platelet activating factor (PAF) or collagen.
Anti-platelet aggregation effects were studied by pretreatment of PRP with 2-hydroxyacetanilide or paracetamol for 1 minute followed by the addition of the maximum dose of agonist (i.e. AA, PAF or collagen). The resulting aggregation was monitored for 5 minutes following agonist addition by the change in light transmission as a function of time.
The results were expressed as percentage inhibition after the addition of aggregation agents compared with controls. Once the anti-platelet aggregation activity of the inhibitors against these agonists was established, dose-response curves were constructed to calculate the IC50 values of the inhibitors.

[6] = overdose, about twenty 500 mg tablets; cited from earlier work

Row | Compound | in vitro inhibition of platelet aggregation [1] | Mean paw volume ± SEM after 5 hr ([2]; dose 150 mg/kg) [mL] | Anti-inflammatory Activity Mean ± SEM ([2]; dose 150 mg/kg) | Mean paw volume ± SEM after 5 hr ([2]; dose 500 mg/kg) [mL] | Anti-inflammatory Activity Mean ± SEM ([2]; dose 500 mg/kg) | Survival (PAF-induced mortality; 50 mg/kg IP 2 hours before PAF 11 μg/kg IV) | Mean paw volume ± SEM after 5 hr ([2]; dose 300 mg/kg) [mL] | Anti-inflammatory Activity Mean ± SEM ([2]; dose 300 mg/kg) | inhibition at 500 mg/kg ([3]; AA 1.7 mM, read-out: % inhibition of in vivo platelet aggregation induced by AA) [%] | inhibition at 500 mg/kg ([3]; PAF 0.8 μM, read-out: % inhibition of in vivo platelet aggregation induced by PAF) [%] | Survival (PAF-induced mortality; 300 mg/kg IP 2 hours before PAF 11 μg/kg IV) | Survival (PAF-induced mortality; 500 mg/kg IP 2 hours before PAF 11 μg/kg IV) | No. of writhings ([4]; 300 mg/kg oral) | No. of writhings ([4]; 500 mg/kg oral) | inhibition at 300 mg/kg ([4]; Mus musculus, 300 mg/kg oral) [%] | inhibition at 500 mg/kg ([4]; Mus musculus, 500 mg/kg oral) [%] | IC50 ([5]; aggregation agent AA, read-out: IC50 ± SEM, platelet aggregation induced by AA) [µM] | IC50 ([5]; aggregation agent PAF, read-out: IC50 ± SEM, platelet aggregation induced by PAF) [µM] | IC50 ([5]; aggregation agent collagen, read-out: IC50 ± SEM, platelet aggregation induced by Collagen) [µM] | dose that may cause hepatocellular necrosis [6] [g]
1 | CC(=O)Nc1cccc(O)c1 [3-hydroxyacetanilide] | comparable in vitro inhibition |  |  |  |  |  |  |  |  |  |  |  |  |  |  |  |  |  |  | 
2 | CC(=O)Oc1ccccc1C(=O)O [Aspirin] |  | 0.58 ± 0.08 | 28 ± 9 | 0.23 ± 0.03 | 71 ± 3 | 7/10* |  |  |  |  |  |  |  |  |  |  |  |  |  | 
3 | CC(=O)Nc1ccc(O)cc1 [Paracetamol, 4-hydroxyacetanilide] |  |  |  | 0.72 ± 0.07 | 10 ± 3 |  | 0.75 ± 0.06 | 6 ± 2 | 5 ± 3 | 8 ± 2 | 0/10 | 2/10 | 20 | 3.2 | 33 | 89 | 136 ± 1 | 167 ± 8 | 263 ± 1 | ≥ 10
